Laboratory results as given in ChEMBL document CHEMBL5506004, “Optimizing drug-like properties of selective butyrylcholinesterase inhibitors for cognitive improvement: Enhancing aqueous solubility by disrupting molecular plane” (Eur J Med Chem, 2024).
Values after ≈ are worked out from the molar mass of the structure shown. Active and inactive are the calls of the source. No cut-off for these calls is given here.

What was measured:
[1] = Oral bioavailability in Sprague-Dawley rat at 10 mg/kg measured for 1 to 1440 mins by LC-MS/MS analysis; assay type: ADME, organism-based; conditions: in vivo, time 1-1440 min
[2] = Toxicity in Amyloid beta (1 to 42)-treated ICR mouse assessed as drug tolerance at 10 mg/kg, po administered daily for 12 days; assay type: organism-based; conditions: in vivo, 288 h, time 12 day
CYP2C9 = CYP2C9 (Homo sapiens, UniProt P11712); assay: Inhibition of CYP2C9 in human liver microsomes at 10 uM in presence of NADPH-regenerating system by LC-MS/MS analysis relative to control; assay type: ADME, Microsome
Chain of CYP2C9 (P11712 whole entry): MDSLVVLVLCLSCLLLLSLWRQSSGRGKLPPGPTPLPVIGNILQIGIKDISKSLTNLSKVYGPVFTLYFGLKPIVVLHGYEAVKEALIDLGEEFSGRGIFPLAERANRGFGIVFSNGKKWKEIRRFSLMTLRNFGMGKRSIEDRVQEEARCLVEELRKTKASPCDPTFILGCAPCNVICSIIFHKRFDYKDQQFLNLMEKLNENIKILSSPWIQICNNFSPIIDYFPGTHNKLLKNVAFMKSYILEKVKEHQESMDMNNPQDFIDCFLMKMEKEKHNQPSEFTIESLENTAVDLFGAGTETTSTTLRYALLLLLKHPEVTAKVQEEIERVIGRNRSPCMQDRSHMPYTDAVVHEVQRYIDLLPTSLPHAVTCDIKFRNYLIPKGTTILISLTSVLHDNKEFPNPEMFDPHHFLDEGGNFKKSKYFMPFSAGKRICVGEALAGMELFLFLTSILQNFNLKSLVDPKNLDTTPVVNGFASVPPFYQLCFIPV

Mus musculus [3] = assay: Cognitive enhancing effect in Amyloid beta (1 to 42)-treated ICR mouse assessed as shorter arrival time at 10 mg/kg, po administered daily measured after 7 to 12 days by Morris water maze test; assay type: functional, organism-based; conditions: time 7-12 day
[4] = Toxicity in Amyloid beta (1 to 42)-treated ICR mouse assessed as body weight change at 10 mg/kg, po administered daily for 12 days; assay type: organism-based; conditions: in vivo, 288 h, time 12 day
HT-22 [5] = assay: Cytotoxicity against mouse HT-22 cells assessed as survival rate at 100 uM incubated for 24 hrs by MTT assay relative to control; assay type: functional; conditions: read-out: Survival
Mus musculus [6] = assay: Downregulation of Amyloid beta (1 to 42) level in brain of Amyloid beta (1 to 42)-treated ICR mouse at 10 mg/kg, po administered daily for 12 days; assay type: functional, organism-based; conditions: time 12.0 day
[7] = Ratio of AUC (0 to t) in brain to plasma in ICR mouse at 10 mg/kg, po measured for 10 to 480 mins by spectroscopy; assay type: ADME, organism-based; conditions: time 10-480 min
[8] = Tmax in Sprague-Dawley rat at 10 mg/kg, iv measured for 1 to 1440 mins by LC-MS/MS analysis; assay type: ADME, organism-based; conditions: in vivo, time 1-1440 min
PC-12 [9] = assay: Cytotoxicity against rat PC12 cells assessed as survival rate at 100 uM incubated for 24 hrs by MTT assay relative to control; assay type: functional; conditions: read-out: Survival
Cholinesterase = Cholinesterase (Equus caballus, UniProt P81908); assay: Inhibition of horse serum BChE using BTC iodide as substrate preincubated for 5 mins followed by substrate addition measured after 2 mins by Ellman's method
Chain of Cholinesterase (P81908 whole entry): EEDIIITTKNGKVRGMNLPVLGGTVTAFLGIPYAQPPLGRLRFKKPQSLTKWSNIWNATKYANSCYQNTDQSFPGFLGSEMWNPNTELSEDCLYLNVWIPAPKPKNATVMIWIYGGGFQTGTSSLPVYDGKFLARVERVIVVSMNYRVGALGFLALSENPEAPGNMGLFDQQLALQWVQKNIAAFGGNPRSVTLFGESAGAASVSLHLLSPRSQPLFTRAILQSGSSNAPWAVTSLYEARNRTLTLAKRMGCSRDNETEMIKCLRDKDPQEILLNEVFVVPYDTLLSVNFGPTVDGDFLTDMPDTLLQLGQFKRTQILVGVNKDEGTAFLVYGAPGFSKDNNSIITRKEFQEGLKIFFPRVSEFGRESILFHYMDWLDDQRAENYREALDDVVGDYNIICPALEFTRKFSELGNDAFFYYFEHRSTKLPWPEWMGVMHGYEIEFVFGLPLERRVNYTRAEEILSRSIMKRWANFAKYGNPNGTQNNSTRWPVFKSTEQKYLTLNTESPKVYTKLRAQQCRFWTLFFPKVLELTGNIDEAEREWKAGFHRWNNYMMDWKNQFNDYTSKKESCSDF

[10] = MRT (infinity) in Sprague-Dawley rat at 10 mg/kg, po measured for 1 to 1440 mins by LC-MS/MS analysis; assay type: ADME, organism-based; conditions: in vivo, time 1-1440 min
[11] = MRT (infinity) in Sprague-Dawley rat at 10 mg/kg, iv measured for 1 to 1440 mins by LC-MS/MS analysis; assay type: ADME, organism-based; conditions: in vivo, time 1-1440 min
CYP2C19 = CYP2C19 (Homo sapiens, UniProt P33261); assay: Inhibition of CYP2C19 in human liver microsomes at 10 uM in presence of NADPH-regenerating system by LC-MS/MS analysis relative to control; assay type: ADME, Microsome
Chain of CYP2C19 (P33261 whole entry): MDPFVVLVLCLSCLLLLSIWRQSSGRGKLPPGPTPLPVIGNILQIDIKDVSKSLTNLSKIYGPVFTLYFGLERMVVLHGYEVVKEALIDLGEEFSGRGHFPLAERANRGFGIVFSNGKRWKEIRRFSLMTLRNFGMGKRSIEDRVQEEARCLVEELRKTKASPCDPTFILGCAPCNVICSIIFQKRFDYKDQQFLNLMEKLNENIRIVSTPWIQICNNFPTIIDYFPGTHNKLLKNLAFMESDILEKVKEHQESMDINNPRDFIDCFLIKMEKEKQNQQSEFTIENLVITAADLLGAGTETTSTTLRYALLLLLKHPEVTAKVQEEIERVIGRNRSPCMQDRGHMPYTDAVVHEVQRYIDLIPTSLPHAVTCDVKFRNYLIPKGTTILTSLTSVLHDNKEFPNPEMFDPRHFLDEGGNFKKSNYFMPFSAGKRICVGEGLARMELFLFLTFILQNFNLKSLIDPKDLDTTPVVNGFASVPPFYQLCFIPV

[12] = AUC (0 to t) in Sprague-Dawley rat at 10 mg/kg, iv measured for 1 to 1440 mins by LC-MS/MS analysis; assay type: ADME, organism-based; conditions: in vivo, time 1-1440 min
[13] = Cmax in plasma of ICR mouse at 10 mg/kg, po measured for 10 to 480 mins by spectroscopy; assay type: ADME, organism-based; conditions: time 10-480 min
[14] = Cmax in brain of ICR mouse at 10 mg/kg, po measured for 10 to 480 mins by spectroscopy; assay type: ADME, organism-based; conditions: time 10-480 min
[15] = Permeability of compound at 50 ug/ml incubated for 18 hrs by PAMPA; assay type: ADME; conditions: dose 50 µg/ml, read-out: permeability
SH-SY5Y [16] = assay: Neuroprotective activity against amyloid beta (1 to 42)-induced neuronal death in human SH-SY5Y cells assessed as cell viability pretreated for 1 hr followed by amyloid beta (1 to 42) addition measured after 24 hrs by MTT assay; assay type: functional, cell-based; conditions: dose 1-10 µM, time 25.0 hrs
BV-2 = assay: Cytotoxicity against mouse BV-2 cells assessed as survival rate at 100 uM incubated for 24 hrs by MTT assay relative to control; assay type: functional; conditions: read-out: Survival
[17] = AUC (0 to t) in plasma of ICR mouse at 10 mg/kg, po measured for 10 to 480 mins by spectroscopy; assay type: ADME, organism-based; conditions: time 10-480 min
CYP2D6 = CYP2D6 (Homo sapiens, UniProt P10635); assay: Inhibition of CYP2D6 in human liver microsomes at 10 uM in presence of NADPH-regenerating system by LC-MS/MS analysis relative to control; assay type: ADME, Microsome
Chain of CYP2D6 (P10635 whole entry): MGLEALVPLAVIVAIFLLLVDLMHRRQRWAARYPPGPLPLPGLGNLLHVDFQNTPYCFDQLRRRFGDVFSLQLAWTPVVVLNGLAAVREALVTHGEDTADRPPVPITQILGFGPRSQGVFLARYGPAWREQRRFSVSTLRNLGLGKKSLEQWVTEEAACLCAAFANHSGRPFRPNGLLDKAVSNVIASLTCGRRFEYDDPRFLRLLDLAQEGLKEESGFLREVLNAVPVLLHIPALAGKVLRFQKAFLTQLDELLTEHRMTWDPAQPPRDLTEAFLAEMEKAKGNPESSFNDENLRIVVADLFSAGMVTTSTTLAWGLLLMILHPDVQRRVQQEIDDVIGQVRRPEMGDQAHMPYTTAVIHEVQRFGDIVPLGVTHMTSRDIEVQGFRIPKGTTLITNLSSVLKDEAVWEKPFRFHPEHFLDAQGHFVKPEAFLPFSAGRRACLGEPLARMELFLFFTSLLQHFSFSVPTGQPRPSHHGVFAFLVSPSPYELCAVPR

Cytochrome P450 3A4/3A5 = Cytochrome P450 3A4/3A5 (Homo sapiens, UniProt P08684+P20815); assay: Inhibition of CYP3A4/CYP3A5 in human liver microsomes at 10 uM in presence of NADPH-regenerating system by LC-MS/MS analysis; assay type: ADME, Microsome
[18] = Solubility of compound in FaSSIF incubated for 24 hrs by HPLC analysis; assay type: ADME
HT-22 [19] = assay: Neuroprotective activity against glutamate-induced excitotoxicity in mouse HT-22 cells assessed as cell viability at 1 to 10 uM pretreated for 1 hr followed by glutamate addition measured after 24 hrs by MTT assay; assay type: functional, cell-based; conditions: dose 1-10 µM, time 25.0 hrs
hERG (KCNH2) = hERG (KCNH2) (Homo sapiens, UniProt Q12809); assay: Inhibition of hERG at 10 uM by manual patch clamp assay relative to control; assay type: toxicity
Chain of hERG (KCNH2) (Q12809 whole entry): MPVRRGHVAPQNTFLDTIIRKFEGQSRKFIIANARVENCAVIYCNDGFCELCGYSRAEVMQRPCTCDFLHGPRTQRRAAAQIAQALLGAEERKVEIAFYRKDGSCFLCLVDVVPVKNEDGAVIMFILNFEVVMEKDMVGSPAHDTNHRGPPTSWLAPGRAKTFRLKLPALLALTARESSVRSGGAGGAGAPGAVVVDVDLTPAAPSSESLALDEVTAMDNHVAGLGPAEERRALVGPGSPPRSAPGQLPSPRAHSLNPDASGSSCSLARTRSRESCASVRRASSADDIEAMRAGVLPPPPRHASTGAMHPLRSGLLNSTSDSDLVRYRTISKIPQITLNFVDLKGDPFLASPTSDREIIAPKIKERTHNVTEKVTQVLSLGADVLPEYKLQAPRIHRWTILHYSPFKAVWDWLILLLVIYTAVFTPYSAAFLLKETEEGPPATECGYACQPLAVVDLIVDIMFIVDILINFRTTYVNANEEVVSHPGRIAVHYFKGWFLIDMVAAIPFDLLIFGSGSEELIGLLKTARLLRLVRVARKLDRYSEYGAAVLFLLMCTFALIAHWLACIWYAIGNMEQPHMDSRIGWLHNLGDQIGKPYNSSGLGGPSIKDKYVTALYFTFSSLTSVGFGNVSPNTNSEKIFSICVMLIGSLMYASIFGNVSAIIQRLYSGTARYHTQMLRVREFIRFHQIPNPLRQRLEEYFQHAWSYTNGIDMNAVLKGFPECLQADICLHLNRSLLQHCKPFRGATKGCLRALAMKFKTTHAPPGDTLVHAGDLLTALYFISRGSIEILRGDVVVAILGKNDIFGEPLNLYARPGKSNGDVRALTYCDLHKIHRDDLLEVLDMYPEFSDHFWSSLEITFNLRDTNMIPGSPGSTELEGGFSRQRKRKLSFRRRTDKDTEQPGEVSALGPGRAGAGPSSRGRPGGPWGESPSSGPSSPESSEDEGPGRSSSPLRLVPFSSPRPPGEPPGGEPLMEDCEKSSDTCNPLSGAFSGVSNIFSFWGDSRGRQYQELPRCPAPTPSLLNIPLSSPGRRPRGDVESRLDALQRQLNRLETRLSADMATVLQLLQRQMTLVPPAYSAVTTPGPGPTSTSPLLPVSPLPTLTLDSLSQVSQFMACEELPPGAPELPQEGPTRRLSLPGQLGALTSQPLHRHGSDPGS

[20] = AUC (0 to infinity) in Sprague-Dawley rat at 10 mg/kg, iv measured for 1 to 1440 mins by LC-MS/MS analysis; assay type: ADME, organism-based; conditions: in vivo, time 1-1440 min
[21] = Ratio of Cmax in brain to plasma in ICR mouse at 10 mg/kg, po measured for 10 to 480 mins by spectroscopy; assay type: ADME, organism-based; conditions: time 10-480 min
[22] = Cytotoxicity against human L02 cells assessed as survival rate at 100 uM incubated for 24 hrs by MTT assay relative to control; assay type: toxicity, cell-based; conditions: read-out: Survival
[23] = Cmax in Sprague-Dawley rat at 10 mg/kg, iv measured for 1 to 1440 mins by LC-MS/MS analysis; assay type: ADME, organism-based; conditions: in vivo, time 1-1440 min
[24] = AUC (0 to infinity) in Sprague-Dawley rat at 10 mg/kg, po measured for 1 to 1440 mins by LC-MS/MS analysis; assay type: ADME, organism-based; conditions: in vivo, time 1-1440 min
[25] = Half life in Sprague-Dawley rat at 10 mg/kg, iv measured for 1 to 1440 mins by LC-MS/MS analysis; assay type: ADME, organism-based; conditions: in vivo, time 1-1440 min
Mus musculus [26] = assay: Cognitive enhancing effect in Amyloid beta (1 to 42)-treated ICR mouse assessed as reduction in trajectory uncertainty at 10 mg/kg, po administered daily measured after 7 to 12 days by Morris water maze test; assay type: functional, organism-based; conditions: time 7-12 day
[27] = AUC (0 to t) in brain of ICR mouse at 10 mg/kg, po measured for 10 to 480 mins by spectroscopy; assay type: ADME, organism-based; conditions: time 10-480 min
[28] = Tmax in Sprague-Dawley rat at 10 mg/kg, po measured for 1 to 1440 mins by LC-MS/MS analysis; assay type: ADME, organism-based; conditions: in vivo, time 1-1440 min
SH-SY5Y [29] = assay: Cytotoxicity against human SH-SY5Y cells assessed as survival rate incubated for 24 hrs by MTT assay; assay type: functional, cell-based
Mus musculus [30] = assay: Cognitive enhancing effect in Amyloid beta (1 to 42)-treated ICR mouse assessed as spontaneous decision behaviour at 10 mg/kg, po administered daily measured after 13 days by Y-maze test; assay type: functional, organism-based; conditions: time 13.0 day
PC-12 [31] = assay: Neuroprotective activity in rat PC12 cells assessed as cell viability pretreated for 2 hrs followed by H2O2 addition measured after 24 hrs by MTT assay; assay type: functional, cell-based; conditions: time 26.0 hrs

Nc1nonc1-c1nc2ccccc2n1CC(=O)Nc1ccc(CCN2CCOCC2)cc1
bioavailability [1]: 48.2% | Activity [2]: Non-Toxic | inhibition at 10 µM (CYP2C9): 10.9% | Activity (Mus musculus [3]): Active | Activity [4]: Non-Toxic | viability at 100 µM (HT-22 [5]): 80.7% | Activity (Mus musculus [6]): Active | Kp [7]: 0.32 | Tmax [8]: 3 min | viability at 100 µM (PC-12 [9]): 75.5% | IC50 (Cholinesterase): 0.0114 µM | MRT inf [10]: 9.67 h | MRT inf [11]: 2.57 h | inhibition at 10 µM (CYP2C19): 9.19% | AUC(0-t) [12]: 3570 ng·h/mL | Cmax [13]: 1390 ng/mL | Cmax [14]: 209 ng/mL | Papp at 18 h, 50 ug/ml [15]: 6.64 ×10⁻⁶ cm/s | Activity (SH-SY5Y [16]): Dose-Dependent Effect | viability at 100 µM (BV-2): 66.5% | AUC(0-t) [17]: 826 ng·h/mL | inhibition at 10 µM (CYP2D6): 0.89% | inhibition (INH) (Cytochrome P450 3A4/3A5): Not Active | solubility at 24 h [18]: 3.28 mM (≈ 1470 µg/mL) | Activity (HT-22 [19]): Active | inhibition at 10 µM (hERG (KCNH2)): 25.5% | AUC(0-inf) [20]: 3590 ng·h/mL | Kp [21]: 0.15 | viability at 24 h, 100 µM [22]: 87.1% | Cmax [23]: 4610 ng/mL | AUC(0-inf) [24]: 1730 ng·h/mL | half-life [25]: 3.29 h | Activity (Mus musculus [26]): Active | AUC(0-t) [27]: 268 ng·h/mL | Tmax [28]: 0.389 h | IC50 (SH-SY5Y [29]): 89.8 µM | Activity (Mus musculus [30]): Active | Activity (PC-12 [31]): Dose-Dependent Effect
